Data on seven molecules can be found in ChEMBL document CHEMBL3991601, “The target landscape of clinical kinase drugs” (Science, 2017).

Each structure is given as a SMILES string. The source made the active and inactive calls. Cut-off read from the data, not from the text of the source, for most assays here: actives have a measured Kd and inactives only a lower limit.

For assay [1], the target named is Platelet-derived growth factor receptor beta (Homo sapiens, UniProt P09619).
For assay [2], the target named is Tyrosine-protein kinase Lyn (Homo sapiens, UniProt P07948).
The target of assay [3] is Mitogen-activated protein kinase 14 (Homo sapiens, UniProt Q16539).
In assay [4] the target is cAMP-dependent protein kinase catalytic subunit gamma (Homo sapiens, UniProt P22612).
The target of assay [5] is Receptor-interacting serine/threonine-protein kinase 2 (Homo sapiens, UniProt O43353).
Assay [6] addresses T1, Dual specificity mitogen-activated protein kinase kinase 5 (Homo sapiens, UniProt Q13163).
T1 sequence (Q13163 whole entry): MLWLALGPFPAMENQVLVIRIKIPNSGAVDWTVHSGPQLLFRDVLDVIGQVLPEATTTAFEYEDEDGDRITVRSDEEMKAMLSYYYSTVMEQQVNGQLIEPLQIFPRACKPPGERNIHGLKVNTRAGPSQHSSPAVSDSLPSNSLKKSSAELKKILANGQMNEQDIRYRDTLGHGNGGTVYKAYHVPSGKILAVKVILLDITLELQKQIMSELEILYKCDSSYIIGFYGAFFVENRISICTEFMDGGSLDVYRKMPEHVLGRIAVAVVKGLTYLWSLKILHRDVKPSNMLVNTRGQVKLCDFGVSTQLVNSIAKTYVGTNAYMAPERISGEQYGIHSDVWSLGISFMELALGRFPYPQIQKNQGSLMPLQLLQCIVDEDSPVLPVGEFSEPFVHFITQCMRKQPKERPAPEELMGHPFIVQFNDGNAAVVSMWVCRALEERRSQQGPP

Assay [7] deals with T2, Ras-related protein Rab-10 (Homo sapiens, UniProt P61026).
T2 sequence (P61026 whole entry): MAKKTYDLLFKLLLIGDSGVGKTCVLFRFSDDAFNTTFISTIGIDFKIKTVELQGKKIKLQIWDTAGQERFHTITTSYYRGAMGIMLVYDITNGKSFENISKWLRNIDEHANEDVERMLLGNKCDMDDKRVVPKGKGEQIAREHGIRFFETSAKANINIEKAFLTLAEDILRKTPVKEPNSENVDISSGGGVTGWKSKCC

Assay [8] has as its target Dual specificity testis-specific protein kinase 1 (Homo sapiens, UniProt Q15569).
The next assay addresses Deoxycytidine kinase (Homo sapiens, UniProt P27707).
The target in assay [9] is T3, Glycogen phosphorylase, liver form (Homo sapiens, UniProt P06737).
T3 sequence (P06737 whole entry): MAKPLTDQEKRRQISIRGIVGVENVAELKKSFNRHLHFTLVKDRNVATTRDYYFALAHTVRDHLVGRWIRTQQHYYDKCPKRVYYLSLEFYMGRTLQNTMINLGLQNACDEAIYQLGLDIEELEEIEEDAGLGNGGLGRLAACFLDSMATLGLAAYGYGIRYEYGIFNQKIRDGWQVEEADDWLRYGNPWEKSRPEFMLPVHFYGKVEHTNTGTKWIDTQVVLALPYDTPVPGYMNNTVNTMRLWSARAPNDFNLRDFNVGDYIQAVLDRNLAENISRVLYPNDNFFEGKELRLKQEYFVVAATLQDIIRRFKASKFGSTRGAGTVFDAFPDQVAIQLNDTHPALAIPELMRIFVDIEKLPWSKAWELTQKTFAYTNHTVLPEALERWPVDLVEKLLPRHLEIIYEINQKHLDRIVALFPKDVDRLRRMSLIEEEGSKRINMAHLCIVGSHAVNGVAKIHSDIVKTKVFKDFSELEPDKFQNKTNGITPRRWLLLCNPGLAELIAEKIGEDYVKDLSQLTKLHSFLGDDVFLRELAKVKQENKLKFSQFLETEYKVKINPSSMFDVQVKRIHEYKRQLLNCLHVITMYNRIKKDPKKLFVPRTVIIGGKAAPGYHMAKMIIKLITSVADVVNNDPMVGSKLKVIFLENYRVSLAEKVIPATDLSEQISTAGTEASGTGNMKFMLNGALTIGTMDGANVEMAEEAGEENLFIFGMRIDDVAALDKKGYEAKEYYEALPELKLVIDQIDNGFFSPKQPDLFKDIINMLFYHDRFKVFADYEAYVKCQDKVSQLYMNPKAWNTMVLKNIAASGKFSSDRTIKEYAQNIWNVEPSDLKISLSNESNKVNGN
Format: subcellular, K-562, COLO 205, SK-N-BE(2) and MV-4-11, Cell lysate. The note with it: read-out: Kd apparent.

For assay [10], the target named is Cyclin-dependent kinase 2 (Homo sapiens, UniProt P24941).
Assay [11] concerns the target Non-receptor tyrosine-protein kinase TYK2 (Homo sapiens, UniProt P29597).
Assay [12] addresses Serine/threonine-protein kinase SIK2 (Homo sapiens, UniProt Q9H0K1).
Assay [13] deals with DnaJ homolog subfamily A member 1 (Homo sapiens, UniProt P31689).
Assay [14] deals with Bone morphogenetic protein receptor type-1B (Homo sapiens, UniProt O00238).
Assay [15] concerns the target Mitogen-activated protein kinase kinase kinase kinase 5 (Homo sapiens, UniProt Q9Y4K4).
The target in the next assay is Ephrin type-A receptor 5 (Homo sapiens, UniProt P54756).
Note: in the data inactive means no Kd found up to 30 µM.

Tyrosine-protein kinase Lyn, sequence (P07948 whole entry): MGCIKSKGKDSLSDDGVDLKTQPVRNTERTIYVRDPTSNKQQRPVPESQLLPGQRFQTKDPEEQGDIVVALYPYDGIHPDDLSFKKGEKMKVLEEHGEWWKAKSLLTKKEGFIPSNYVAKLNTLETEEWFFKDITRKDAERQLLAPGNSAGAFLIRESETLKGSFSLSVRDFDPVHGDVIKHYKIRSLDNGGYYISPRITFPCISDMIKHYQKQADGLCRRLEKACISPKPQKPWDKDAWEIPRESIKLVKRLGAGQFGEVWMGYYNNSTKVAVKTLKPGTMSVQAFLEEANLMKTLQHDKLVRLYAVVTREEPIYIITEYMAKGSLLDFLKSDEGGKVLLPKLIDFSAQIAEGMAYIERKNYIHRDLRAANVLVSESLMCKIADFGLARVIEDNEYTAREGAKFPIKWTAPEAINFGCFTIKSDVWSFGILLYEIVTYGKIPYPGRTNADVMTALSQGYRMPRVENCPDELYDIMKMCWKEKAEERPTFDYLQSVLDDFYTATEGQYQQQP
Serine/threonine-protein kinase SIK2, sequence (Q9H0K1 whole entry): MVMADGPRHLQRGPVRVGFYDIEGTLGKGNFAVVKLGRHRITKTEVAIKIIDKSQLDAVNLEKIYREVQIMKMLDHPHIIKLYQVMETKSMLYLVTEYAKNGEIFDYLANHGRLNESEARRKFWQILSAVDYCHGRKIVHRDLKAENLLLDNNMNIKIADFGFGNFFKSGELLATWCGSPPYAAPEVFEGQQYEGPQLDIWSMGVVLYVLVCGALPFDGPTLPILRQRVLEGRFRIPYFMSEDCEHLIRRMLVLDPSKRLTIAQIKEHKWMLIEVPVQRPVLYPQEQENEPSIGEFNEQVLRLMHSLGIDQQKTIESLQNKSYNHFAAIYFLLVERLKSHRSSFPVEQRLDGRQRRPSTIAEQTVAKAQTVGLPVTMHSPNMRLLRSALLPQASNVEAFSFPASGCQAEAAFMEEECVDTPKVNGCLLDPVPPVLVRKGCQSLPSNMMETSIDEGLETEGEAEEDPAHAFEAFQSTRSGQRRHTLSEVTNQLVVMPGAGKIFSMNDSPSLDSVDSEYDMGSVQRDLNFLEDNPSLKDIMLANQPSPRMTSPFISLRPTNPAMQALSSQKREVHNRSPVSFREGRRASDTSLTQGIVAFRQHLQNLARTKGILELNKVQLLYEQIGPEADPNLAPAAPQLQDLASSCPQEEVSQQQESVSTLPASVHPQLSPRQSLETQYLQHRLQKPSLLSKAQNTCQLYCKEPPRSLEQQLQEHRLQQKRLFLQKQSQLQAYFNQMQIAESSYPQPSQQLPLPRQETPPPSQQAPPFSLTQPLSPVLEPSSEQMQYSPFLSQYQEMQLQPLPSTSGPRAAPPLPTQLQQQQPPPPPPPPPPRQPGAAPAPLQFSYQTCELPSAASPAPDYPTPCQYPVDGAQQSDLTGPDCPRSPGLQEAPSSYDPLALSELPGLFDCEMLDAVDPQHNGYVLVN
Dual specificity testis-specific protein kinase 1, sequence (Q15569 whole entry): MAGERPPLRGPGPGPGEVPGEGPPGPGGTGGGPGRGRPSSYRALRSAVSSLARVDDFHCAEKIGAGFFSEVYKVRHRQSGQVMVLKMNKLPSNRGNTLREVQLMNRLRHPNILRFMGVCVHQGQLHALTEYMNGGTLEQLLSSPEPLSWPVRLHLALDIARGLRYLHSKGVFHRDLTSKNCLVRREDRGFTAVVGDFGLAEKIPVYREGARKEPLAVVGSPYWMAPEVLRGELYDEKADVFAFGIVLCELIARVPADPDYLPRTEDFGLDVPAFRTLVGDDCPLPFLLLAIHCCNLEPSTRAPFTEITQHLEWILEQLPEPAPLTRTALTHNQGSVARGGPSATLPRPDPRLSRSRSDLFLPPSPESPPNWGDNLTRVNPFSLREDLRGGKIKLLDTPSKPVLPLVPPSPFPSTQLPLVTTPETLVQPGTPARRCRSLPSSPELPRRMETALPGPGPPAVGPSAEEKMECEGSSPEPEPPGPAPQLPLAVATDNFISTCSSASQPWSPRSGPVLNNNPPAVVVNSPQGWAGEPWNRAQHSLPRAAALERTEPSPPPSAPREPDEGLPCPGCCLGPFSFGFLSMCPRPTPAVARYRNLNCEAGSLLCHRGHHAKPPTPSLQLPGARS
Deoxycytidine kinase, sequence (P27707 whole entry): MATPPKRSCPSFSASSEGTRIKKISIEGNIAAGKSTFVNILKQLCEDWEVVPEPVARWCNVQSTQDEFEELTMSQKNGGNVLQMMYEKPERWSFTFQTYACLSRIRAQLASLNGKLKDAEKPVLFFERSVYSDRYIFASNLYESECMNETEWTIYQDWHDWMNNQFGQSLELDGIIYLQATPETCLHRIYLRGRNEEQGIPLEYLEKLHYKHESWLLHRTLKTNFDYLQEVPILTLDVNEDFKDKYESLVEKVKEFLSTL
DnaJ homolog subfamily A member 1, sequence (P31689 whole entry): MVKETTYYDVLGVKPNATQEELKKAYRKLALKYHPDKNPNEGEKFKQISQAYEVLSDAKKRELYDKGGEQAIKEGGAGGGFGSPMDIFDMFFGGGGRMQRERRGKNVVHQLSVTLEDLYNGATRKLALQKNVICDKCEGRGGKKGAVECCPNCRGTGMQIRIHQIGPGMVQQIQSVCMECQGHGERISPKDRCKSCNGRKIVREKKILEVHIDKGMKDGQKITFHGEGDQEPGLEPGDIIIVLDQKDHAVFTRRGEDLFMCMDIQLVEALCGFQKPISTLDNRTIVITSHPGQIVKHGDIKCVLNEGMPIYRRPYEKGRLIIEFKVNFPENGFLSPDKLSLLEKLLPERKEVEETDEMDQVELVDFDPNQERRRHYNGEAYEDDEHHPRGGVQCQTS
Platelet-derived growth factor receptor beta, sequence (P09619 whole entry): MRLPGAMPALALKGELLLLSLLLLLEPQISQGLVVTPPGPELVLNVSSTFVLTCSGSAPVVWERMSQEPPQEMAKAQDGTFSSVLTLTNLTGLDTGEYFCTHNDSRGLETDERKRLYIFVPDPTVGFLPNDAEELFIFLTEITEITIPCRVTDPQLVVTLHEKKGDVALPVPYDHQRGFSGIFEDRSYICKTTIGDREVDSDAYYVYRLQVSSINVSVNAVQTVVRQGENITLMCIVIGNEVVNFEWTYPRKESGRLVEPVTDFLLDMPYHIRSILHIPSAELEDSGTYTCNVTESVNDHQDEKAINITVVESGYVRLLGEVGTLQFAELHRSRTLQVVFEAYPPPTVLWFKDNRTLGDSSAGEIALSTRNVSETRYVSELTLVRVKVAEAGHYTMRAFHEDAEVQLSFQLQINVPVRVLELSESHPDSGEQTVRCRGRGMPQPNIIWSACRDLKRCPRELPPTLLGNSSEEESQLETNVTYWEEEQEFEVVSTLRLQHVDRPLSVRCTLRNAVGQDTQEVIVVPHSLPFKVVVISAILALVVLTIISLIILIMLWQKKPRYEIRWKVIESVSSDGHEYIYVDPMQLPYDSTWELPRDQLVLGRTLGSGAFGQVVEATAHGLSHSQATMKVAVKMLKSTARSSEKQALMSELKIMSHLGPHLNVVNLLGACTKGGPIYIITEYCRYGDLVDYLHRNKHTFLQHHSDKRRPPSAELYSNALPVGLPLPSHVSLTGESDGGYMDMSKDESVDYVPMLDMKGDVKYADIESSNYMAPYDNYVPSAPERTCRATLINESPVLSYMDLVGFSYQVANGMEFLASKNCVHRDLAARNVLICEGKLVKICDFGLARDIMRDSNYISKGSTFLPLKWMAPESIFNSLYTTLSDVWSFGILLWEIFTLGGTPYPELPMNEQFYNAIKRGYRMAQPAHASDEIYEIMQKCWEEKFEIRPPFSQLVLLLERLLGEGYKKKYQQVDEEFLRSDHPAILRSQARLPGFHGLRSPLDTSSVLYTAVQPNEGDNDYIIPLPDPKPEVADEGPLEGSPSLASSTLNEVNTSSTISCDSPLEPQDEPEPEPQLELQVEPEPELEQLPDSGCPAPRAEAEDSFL
Bone morphogenetic protein receptor type-1B, sequence (O00238 whole entry): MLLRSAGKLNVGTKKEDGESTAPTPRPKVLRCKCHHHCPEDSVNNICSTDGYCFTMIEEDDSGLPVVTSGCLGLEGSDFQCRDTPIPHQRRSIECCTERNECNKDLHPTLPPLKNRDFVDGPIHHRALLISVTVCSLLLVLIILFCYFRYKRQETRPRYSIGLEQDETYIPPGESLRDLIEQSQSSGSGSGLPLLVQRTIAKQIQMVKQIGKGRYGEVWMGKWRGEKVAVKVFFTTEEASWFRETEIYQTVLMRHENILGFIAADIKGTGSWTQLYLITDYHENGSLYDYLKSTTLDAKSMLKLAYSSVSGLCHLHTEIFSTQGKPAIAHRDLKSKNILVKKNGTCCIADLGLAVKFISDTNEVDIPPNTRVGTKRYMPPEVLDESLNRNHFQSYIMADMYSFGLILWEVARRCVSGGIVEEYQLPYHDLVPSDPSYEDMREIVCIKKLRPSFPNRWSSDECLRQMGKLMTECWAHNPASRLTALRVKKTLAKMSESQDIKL
cAMP-dependent protein kinase catalytic subunit gamma, sequence (P22612 whole entry): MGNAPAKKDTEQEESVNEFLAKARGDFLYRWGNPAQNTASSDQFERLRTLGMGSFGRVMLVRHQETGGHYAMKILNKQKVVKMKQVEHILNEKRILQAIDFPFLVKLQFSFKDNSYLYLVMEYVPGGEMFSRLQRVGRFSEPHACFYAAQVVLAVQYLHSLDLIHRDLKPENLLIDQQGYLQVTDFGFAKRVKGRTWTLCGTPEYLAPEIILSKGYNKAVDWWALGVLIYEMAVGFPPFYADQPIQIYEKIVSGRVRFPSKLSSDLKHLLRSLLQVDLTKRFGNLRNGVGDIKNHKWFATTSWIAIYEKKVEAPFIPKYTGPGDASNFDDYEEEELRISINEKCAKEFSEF

On to `COc1ncc(-c2ccc3nccc(-c4ccnnc4)c3c2)cc1NS(=O)(=O)c1ccc(F)cc1F` [OMIPALISIB], for which the Kd in [1], in assay [2], in assay [3], in assay [4], in assay [5] and in assay [6] was > 30 µM (inactive) each time. The Kd (in [7]; in [8]; at Deoxycytidine kinase; in assay [9]; in [10]; in assay [11]) was > 30 µM (inactive) each time. The Kd (in [12]; in assay [13]; in assay [14]; in assay [15]; on Ephrin type-A receptor 5) was > 30 µM (inactive) in each case.
As for `Cc1cnc(NC(=O)Nc2cc(Br)c(C)cc2OC[C@@H]2CNCCO2)cn1` [RABUSERTIB], the Kd in assay [1], in assay [2], in [3], in [4], in assay [5] and in assay [6] was > 30 µM (inactive) throughout. The Kd (in [7]; in assay [8]; at Deoxycytidine kinase; in assay [9]; in assay [10]; in [11]) was > 30 µM (inactive) in each case. The Kd (in [12]; in assay [13]; in assay [14]; in assay [15]; at Ephrin type-A receptor 5) was > 30 µM (inactive) in each case.
`CO[C@H]1C[C@@H]2CC[C@@H](C)[C@@](O)(O2)C(=O)C(=O)N2CCCC[C@H]2C(=O)O[C@H]([C@H](C)C[C@@H]2CC[C@@H](OP(C)(C)=O)[C@H](OC)C2)CC(=O)[C@H](C)/C=C(\C)[C@@H](O)[C@@H](OC)C(=O)[C@H](C)C[C@H](C)/C=C/C=C/C=C/1C` [RIDAFOROLIMUS]: the Kd in assay [1], in assay [2], in [3], in [4], in assay [5] and in assay [6] was > 30 µM (inactive) each time. Moreover, the Kd (in [7]; in assay [8]; at Deoxycytidine kinase; in assay [9]; in assay [10]; in assay [11]) was > 30 µM (inactive) in each case. The Kd (in assay [12]; in [13]; in assay [14]; in assay [15]; at Ephrin type-A receptor 5) was > 30 µM (inactive) each time.
`N#CC1(c2ccc(NC(=O)c3cccnc3NCc3ccncc3)cc2)CCCC1` [RIVOCERANIB]: the Kd in assay [1], in assay [2], in assay [3], in assay [4], in [5] and in assay [6] was > 30 µM (inactive) each time. Besides, the Kd (in [7]; in assay [8]; on Deoxycytidine kinase; in [9]; in assay [10]; in [11]) was > 30 µM (inactive) each time. Further, the Kd (in assay [12]; in assay [13]; in assay [14]; in assay [15]; at Ephrin type-A receptor 5) was > 30 µM (inactive) throughout.
Take `O=c1[nH]ccc2cc(OC3CCNCC3)ccc12` [SAR-407899 FREE BASE]: the Kd in [1], in assay [2], in [3], in assay [4], in [5] and in assay [6] was > 30 µM (inactive) each time. Besides, the Kd (in assay [7]; in assay [8]; at Deoxycytidine kinase; in [9]; in assay [10]; in [11]) was > 30 µM (inactive) in each case. Moreover, the Kd (in assay [12]; in assay [13]; in [14]; in assay [15]; at Ephrin type-A receptor 5) was > 30 µM (inactive) throughout.
With `Cn1cc(-c2cnn3c(N)c(Br)c([C@@H]4CCCNC4)nc23)cn1` [SCH-900776], the Kd was > 30 µM (inactive) in assay [1]; > 30 µM (inactive) in [2]; > 30 µM (inactive) in [3]; > 30 µM (inactive) in assay [4]; > 30 µM (inactive) in [5]; 0.609 µM (active) in assay [6]. Further, the Kd (in assay [7]; in assay [8]; at Deoxycytidine kinase; in [9]; in assay [10]; in [11]) was > 30 µM (inactive) in each case. In addition, the Kd in assay [12] was 0.27 µM (active); in assay [13] it was > 30 µM (inactive); in assay [14], > 30 µM (inactive); in [15], > 30 µM (inactive); on Ephrin type-A receptor 5, > 30 µM (inactive).
Take `CO[C@H]1C[C@@H]2CC[C@@H](C)[C@@](O)(O2)C(=O)C(=O)N2CCCC[C@H]2C(=O)O[C@H]([C@H](C)C[C@@H]2CC[C@@H](OC(=O)C(C)(CO)CO)[C@H](OC)C2)CC(=O)[C@H](C)/C=C(\C)[C@@H](O)[C@@H](OC)C(=O)[C@H](C)C[C@H](C)/C=C/C=C/C=C/1C` [TEMSIROLIMUS]: the Kd in assay [1], in assay [2], in [3], in assay [4], in assay [5] and in assay [6] was > 30 µM (inactive) in each case. Besides, the Kd (in assay [7]; in [8]; on Deoxycytidine kinase; in assay [9]; in [10]; in assay [11]) was > 30 µM (inactive) each time. The Kd (in assay [12]; in [13]; in [14]; in assay [15]; at Ephrin type-A receptor 5) was > 30 µM (inactive) each time.
